Test results taken from US9708336B2, “Metallo-beta-lactamase inhibitors” (priority 2014, dated 2017).
Where two headings read alike, the source gives them in different places.

Assays:
NDM-1 = NDM-1 (Klebsiella pneumoniae, UniProt C7C422); experiment: biochemical; format: biochemical; conditions: read-out: NDM-1 IC50
IMP-1 = IMP-1 (Serratia marcescens, UniProt P52699); experiment: biochemical; format: biochemical; conditions: read-out: IMP-1 IC50
VIM-1 = VIM-1 (Pseudomonas aeruginosa (strain ATCC 15692 / DSM 22644 / CIP 104116 / JCM 14847 / LMG 12228 / 1C / PRS 101 / PAO1), UniProt A0A0F7KYQ8); experiment: Enzyme activity: determination of IC50, fluorescence assay with CCF2-FA substrate (VIM-1); format: biochemical
[1] = system: Klebsiella pneumoniae expressing VIM-1 (IHMA599644); experiment: Antibiotic potentiation activity: synergistic concentration (MITC95) with imipenem, OD600 growth; format: cell-based; conditions: for Klebsiella pneumoniae expressing VIM-1 (IHMA 599644) MITC95: concentration giving 95% inhibition of bacterial growth; for Klebsiella pneumoniae MITC95: Klebsiella pneumoniae expressing VIM-1 (IHMA599644), 95% growth inhibition
Protocol: (§1) Antibiotic Potentiation Activity: Determination of Synergistic Concentration
(§2) The bacterial strains tested included the clinical strains Escherichia coli expressing NDM-1 (CLB30005, CLB30016), Serratia marcescens expressing IMP-1 (CL5741), and Klebsiella pneumoniae expressing VIM-1 (IHMA599644) Inhibitor activity was measured in the presence and absence of imipenem in a 384-well microplate.
(§3) The clinical strains CLB30016, CL5741 and IHMA599644 were grown on trypticase soy agar containing 5% sheep's blood. The clinical strain CLB30005 was grown on Mueller Hinton broth agar containing 8 ug/ml imipenem. The bacteria on agar plates were incubated at 35° C. with humidity overnight. The following day, individual colonies from each clinical strain were picked and resuspended in 5 ml saline to attain an OD600 of 0.14, 0.11, 0.15 and 0.13, for CLB30005, CLB30016, CL5741 and IHMA599644, respectively. These were further diluted 1:100 into 1.1×CAMHB and used to inoculate the test wells as described below.
(§4) Imipenem in 10 mM 3-(N-morpholino)propanesulfonic acid (MOPS, pH 7) was stored in single use aliquots at −80° C. […] On the day of the assay, 4 μl of antibiotic was added to 45 ul of bacteria followed by 1 μl of test compound and mixed by pipetting and with an orbital shaker. The concentration of antibiotic used in the assay was 4 μg/ml, or optionally 1 μg/ml. Microplates were covered and incubated at 35° C. for 22 hours to 24 hours. At the end of the incubation, absorbance was determined using a spectrophotometer.

[2] = system: Escherichia coli expressing NDM-1 (CLB30016); experiment: as above; format: cell-based; conditions: for Escherichia coli expressing NDM-1 (CLB 30016) MITC95: concentration giving 95% inhibition of bacterial growth; for Escherichia coli MITC95: Escherichia coli expressing NDM-1 (CLB30016), 95% growth inhibition
Protocol: as §1, §2, §3, §4

[3] = system: Serratia marcescens expressing IMP-1 (CL5741); experiment: as above; format: cell-based; conditions: for Serratia marcescens expressing IMP-1 (CL5741) MITC95: concentration giving 95% inhibition of bacterial growth; for Serratia marcescens MITC95: Serratia marcescens expressing IMP-1 (CL5741), 95% growth inhibition
Protocol: as §1, §2, §3, §4

[4] = fluorescence assay with CCF2-FA substrate
[5] = fluorescence assay with CCF2-FA substrate; read-out: VIM-1 IC50
[6] = NDM-1 enzyme, CCF2-FA fluorescence assay
[7] = IMP-1 enzyme, CCF2-FA fluorescence assay

Chain of IMP-1 (P52699 whole entry, looked up): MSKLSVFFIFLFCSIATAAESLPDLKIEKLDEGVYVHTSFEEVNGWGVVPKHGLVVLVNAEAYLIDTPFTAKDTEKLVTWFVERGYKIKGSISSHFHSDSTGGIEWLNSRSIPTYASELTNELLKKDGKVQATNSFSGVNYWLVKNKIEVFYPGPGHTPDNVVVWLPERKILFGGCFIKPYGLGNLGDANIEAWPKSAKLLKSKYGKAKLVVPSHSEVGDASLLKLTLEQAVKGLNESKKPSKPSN
Chain of NDM-1 (C7C422 whole entry, looked up, species assumed): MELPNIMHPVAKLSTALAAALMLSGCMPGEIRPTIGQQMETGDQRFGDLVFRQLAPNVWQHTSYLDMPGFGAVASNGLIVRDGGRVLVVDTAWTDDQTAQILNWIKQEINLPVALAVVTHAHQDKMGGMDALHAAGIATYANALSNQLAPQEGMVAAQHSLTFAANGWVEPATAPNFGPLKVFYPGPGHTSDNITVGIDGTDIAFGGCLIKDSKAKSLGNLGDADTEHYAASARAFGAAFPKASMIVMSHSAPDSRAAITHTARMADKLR

Structure (SMILES) | IC50 (NDM-1; [4]) [µM] | IC50 (IMP-1; [4]) [µM] | Klebsiella pneumoniae expressing VIM-1 (IHMA 599644) MITC95 [1] [µM] | Escherichia coli expressing NDM-1 (CLB 30016) MITC95 [2] [µM] | Serratia marcescens expressing IMP-1 (CL5741) MITC95 [3] [µM] | IC50 (NDM-1; [6]) [µM] | IC50 (IMP-1; [7]) [µM] | Escherichia coli MITC95 [2] [µM] | Klebsiella pneumoniae MITC95 [1] [µM] | Serratia marcescens MITC95 [3] [µM] | further results
NS(=O)(=O)c1cccc(-c2ccc(C(=O)NC3CCOC3)cc2)c1-c1nn[nH]n1 (stereo not shown) [Example 2, 3′-sulfamoyl-N-(tetrahydrofuran-3-yl)-2′-(2H-tetrazol-5-yl)biphenyl-4-carboxamide] | 0.0523 | 0.262 | – | – | – | – | – | – | – | – | IC50 (VIM-1; [5]): 1.91 µM
NS(=O)(=O)c1cccc(-c2ccc(CO)cc2)c1-c1nnn[nH]1 [Example 26, 4′-(hydroxymethyl)-2-(1H-tetrazol-5-yl)biphenyl-3-sulfonamide] | 0.00243 | 0.0462 | 50 | – | – | – | – | – | – | – | IC50 (VIM-1; [5]): 0.0584 µM
NS(=O)(=O)c1cccc(-c2ccc3ncnn3c2)c1-c1nnn[nH]1 [Example 111, 3-([1,2,4]triazolo[1,5-a]pyridin-6-yl)-2-(1H-tetrazol-5-yl)benzenesulfonamide] | – | – | 18.75 | 1.172 | 9.375 | – | – | – | – | – | –
CN1CCN(c2cc(-c3cccc(S(N)(=O)=O)c3-c3nnn[nH]3)ccn2)CC1 [Example 116, 3-(2-(4-methylpiperazin-1-yl)pyridin-4-yl)-2-(1H-tetrazol-5-yl)benzenesulfonamide] | 0.00543 | 0.226 | 200 | 1.563 | 9.375 | – | – | – | – | – | –
NS(=O)(=O)c1cccc(-c2ccc3nonc3c2)c1-c1nnn[nH]1 [Example 130, 3-(benzo[c][1,2,5]oxadiazol-5-yl)-2-(1H-tetrazol-5-yl)benzenesulfonamide] | 0.0106 | 0.267 | 37.5 | 1.172 | 9.375 | – | – | – | – | – | –
NS(=O)(=O)c1cccc(C2=CCS(=O)(=O)CC2)c1-c1nnn[nH]1 [Example 141, 3-(1,1-dioxido-3,6-dihydro-2H-thiopyran-4-yl)-2-(1H-tetrazol-5-yl)benzenesulfonamide] | 0.0615 | 2.33 | 200 | 0.7813 | 37.5 | – | – | – | – | – | –
NS(=O)(=O)c1cccc(CCc2cccnc2)c1-c1nnn[nH]1 [Example 143, 3-(2-pyridin-3-ylethyl)-2-(1H-tetrazol-5-yl)benzenesulfonamide] | 0.0207 | 0.0985 | 200 | 0.7813 | 4.688 | – | – | – | – | – | –
NS(=O)(=O)c1cccc(C2CCN(C(=O)C3(c4ccccc4)CC3)CC2)c1-c1nn[nH]n1 [Example 176, 3-(1-(1-phenylcyclopropanecarbonyl)piperidin-4-yl)-2-(2H-tetrazol-5-yl)benzenesulfonamide] | 0.00643 | 0.0728 | – | – | – | – | – | – | – | – | IC50 (VIM-1; [5]): 0.148 µM
NS(=O)(=O)c1nccc(N2CCC(CN3CCOCC3)CC2)c1-c1nnn[nH]1 [Example 224, 4-[4-(morpholin-4-ylmethyl)piperidin-1-yl]-3-(1H-tetrazol-5-yl)pyridine-2-sulfonamide] | 0.247 | – | 200 | 4.688 | 18.75 | – | – | – | – | – | –
NS(=O)(=O)c1nccc(NCc2ccccc2)c1-c1nnn[nH]1 [Example 235, 4-(benzylamino)-3-(1H-tetrazol-5-yl)pyridine-2-sulfonamide] | 0.142 | 3.44 | >200 | 12.5 | 200 | – | – | – | – | – | –
Cc1cc(-c2nnn[nH]2)c(S(N)(=O)=O)cc1C [Example 252, 4,5-Dimethyl-2-(2H-tetrazol-5-yl)benzenesulfonamide] | – | – | – | – | – | 0.591 | 112 | – | – | – | IC50 (VIM-1; VIM-1 enzyme, CCF2-FA fluorescence assay; read-out: VIM-1 IC50): 156 µM
NS(=O)(=O)c1c(C(F)(F)F)ccc(-c2ccc(C3CCNCC3)cc2)c1-c1nn[nH]n1 [Example 269, 4′-(piperidin-4-yl)-2-(2H-tetrazol-5-yl)-4-(trifluoromethyl)-[1,1′-biphenyl]-3-sulfonamide] | – | – | – | – | – | 0.00121 | 0.00143 | 0.7383 | 1.969 | 0.3125 | –
CN1[C@@H]2CC[C@H]1CC(NCc1ccc(-c3cccc(S(N)(=O)=O)c3-c3nnn[nH]3)cc1)C2 (stereo partly drawn) [Example 366, 4′-({[(3-endo)-8-methyl-8-azabicyclo[3.2.1]oct-3-yl]amino}methyl)-2-(1H-tetrazol-5-yl)biphenyl-3-sulfonamide] | – | – | – | – | – | 0.0182 | 0.257 | 1.172 | 150 | 3.125 | –
CC(C(=O)O)N(C)Cc1ccc(-c2cccc(S(N)(=O)=O)c2-c2nnn[nH]2)cc1 (stereo not shown) [Example 367, N-methyl-N-{[3′-sulfamoyl-2′-(1H-tetrazol-5-yl)biphenyl-4-yl]methyl}alanine] | – | – | – | – | – | 0.00753 | 0.0603 | 3.125 | 200 | 3.125 | –
CN1C2CCC1CC(NCc1ccc(-c3cccc(S(N)(=O)=O)c3-c3nnn[nH]3)cc1)C2 (stereo not shown) [Example 370, 4′-{[(8-methyl-8-azabicyclo[3.2.1]oct-3-yl)amino]methyl}-2-(1H-tetrazol-5-yl)biphenyl-3-sulfonamide] | – | – | – | – | – | 0.00735 | 0.0458 | 1.563 | 200 | 1.563 | –
NS(=O)(=O)c1cccc(-c2nc(-c3ccncc3)cs2)c1-c1nnn[nH]1 [Example 407, 3-[4-(4-pyridyl)thiazol-2-yl]-2-(1H-tetrazol-5-yl)benzenesulfonamide] | – | – | – | – | – | 0.0258 | 0.115 | 3.125 | >200 | 3.125 | –
NC1CCC(Cc2ccc(-c3ccc(C4CCNCC4)cc3)c(-c3nn[nH]n3)c2S(N)(=O)=O)CC1 (stereo not shown) [Example 455, 4-(((1s,4s)-4-aminocyclohexyl)methyl)-4′-(piperidin-4-yl)-2-(2H-tetrazol-5-yl)-[1,1′-biphenyl]-3-sulfonamide] | – | – | – | – | – | – | 0.0063 | 0.5859 | 1.563 | 0.3906 | –
NC1CCC(Cc2ccc(-c3ccc(C4CCNCC4)cc3)c(-c3nn[nH]n3)c2S(N)(=O)=O)CC1 (stereo not shown) [Example 463, 4-(((1r,4r)-4-aminocyclohexyl)methyl)-4′-(piperidin-4-yl)-2-(2H-tetrazol-5-yl)-[1,1′-biphenyl]-3-sulfonamide] | – | – | – | – | – | – | 0.00658 | 0.7813 | 0.7813 | 0.1953 | –
NS(=O)(=O)c1c(C(F)(F)F)ccc(N2CC3(CCNCC3)C2)c1-c1nnn[nH]1 [Example 782] | – | – | – | – | – | – | – | – | – | – | IC50 (VIM-1; read-out: VIM-1 IC50; fluorescence assay with CCF2-FA substrate): 0.0095 µM
